Measurements taken from ChEMBL document CHEMBL3046007, “Isonicotinic acid hydrazide derivatives: synthesis, antimicrobial activity, and QSAR studies” (Med Chem Res, 2012).
In brackets after ≈: the same amount, converted by molar mass.

Tested on: Vesicular stomatitis virus
Assay: Antiviral activity against Vesicular stomatitis virus infected human HeLa cells assessed as inhibition of virus-induced cytopathicity
Format: functional, organism-based
Conditions: not given

Structure (SMILES) | EC50
COc1cc(/C=N/NC(=O)c2ccncc2)ccc1O [FTIVAZIDE] | > 20 µg/mL
Cc1ccc(/C=N/NC(=O)c2ccncc2)cc1 [N'-(4-METHYLBENZYLIDENE)ISONICOTINOHYDRAZIDE] | > 20 µg/mL

Tested on: Sindbis virus
Assay: Antiviral activity against Sindbis virus infected Vero cells assessed as inhibition of virus-induced cytopathicity
Format: functional, organism-based
Conditions: not given

Structure (SMILES) | EC50
COc1cc(/C=N/NC(=O)c2ccncc2)ccc1O [FTIVAZIDE] | > 100 µg/mL
Cc1ccc(/C=N/NC(=O)c2ccncc2)cc1 [N'-(4-METHYLBENZYLIDENE)ISONICOTINOHYDRAZIDE] | > 20 µg/mL

Tested on: not listed separately
Assay: Cytotoxicity against Homo sapiens (human) MT4 cells
Format: cell-based
Conditions: not given

Structure (SMILES) | CC50
COc1cc(/C=N/NC(=O)c2ccncc2)ccc1O [FTIVAZIDE] | ≥ 89 µg/mL
Cc1ccc(/C=N/NC(=O)c2ccncc2)cc1 [N'-(4-METHYLBENZYLIDENE)ISONICOTINOHYDRAZIDE] | 25 µg/mL (≈ 104 µM)

Tested on: not listed separately
Assay: Cytotoxicity against Homo sapiens (human) HeLa cells
Format: cell-based
Conditions: not given

Structure (SMILES) | MCC
COc1cc(/C=N/NC(=O)c2ccncc2)ccc1O [FTIVAZIDE] | 100 µg/mL
Cc1ccc(/C=N/NC(=O)c2ccncc2)cc1 [N'-(4-METHYLBENZYLIDENE)ISONICOTINOHYDRAZIDE] | 100 µg/mL

Tested on: Coxsackievirus B4
Assay: Antiviral activity against Human coxsackievirus B4 infected Vero cells assessed as inhibition of virus-induced cytopathicity
Format: functional, organism-based
Conditions: Enterovirus B

Structure (SMILES) | EC50
COc1cc(/C=N/NC(=O)c2ccncc2)ccc1O [FTIVAZIDE] | > 100 µg/mL
Cc1ccc(/C=N/NC(=O)c2ccncc2)cc1 [N'-(4-METHYLBENZYLIDENE)ISONICOTINOHYDRAZIDE] | > 20 µg/mL

Tested on: not listed separately
Assay: Cytotoxicity against Homo sapiens (human) HEL cells
Format: cell-based
Conditions: not given

Structure (SMILES) | MCC
COc1cc(/C=N/NC(=O)c2ccncc2)ccc1O [FTIVAZIDE] | > 100 µg/mL
Cc1ccc(/C=N/NC(=O)c2ccncc2)cc1 [N'-(4-METHYLBENZYLIDENE)ISONICOTINOHYDRAZIDE] | > 100 µg/mL

Tested on: Candida albicans
Assay: Antimicrobial activity against Candida albicans after 48 hr by serial dilution method
Format: functional
Conditions: not given

Structure (SMILES) | -logMIC
COc1cc(/C=N/NC(=O)c2ccncc2)ccc1O [FTIVAZIDE] | 2.34
Cc1ccc(/C=N/NC(=O)c2ccncc2)cc1 [N'-(4-METHYLBENZYLIDENE)ISONICOTINOHYDRAZIDE] | 2.28

Tested on: Escherichia coli
Assay: Antimicrobial activity against Escherichia coli after 24 hr by serial dilution method
Format: functional
Conditions: not given

Structure (SMILES) | -logMIC
COc1cc(/C=N/NC(=O)c2ccncc2)ccc1O [FTIVAZIDE] | 2.34
Cc1ccc(/C=N/NC(=O)c2ccncc2)cc1 [N'-(4-METHYLBENZYLIDENE)ISONICOTINOHYDRAZIDE] | 1.98

Tested on: Human alphaherpesvirus 1
Assay: Antiviral activity against TK(-) aciclovir-resistant Human herpesvirus 1 strain KOS infected in human HEL cells assessed as inhibition of virus-induced cytopathicity
Format: functional, organism-based
Conditions: Human alphaherpesvirus 1, KOS

Structure (SMILES) | EC50
COc1cc(/C=N/NC(=O)c2ccncc2)ccc1O [FTIVAZIDE] | > 100 µg/mL
Cc1ccc(/C=N/NC(=O)c2ccncc2)cc1 [N'-(4-METHYLBENZYLIDENE)ISONICOTINOHYDRAZIDE] | > 100 µg/mL

Tested on: Coxsackievirus B4
Assay: Antiviral activity against Human coxsackievirus B4 infected human HeLa cells assessed as inhibition of virus-induced cytopathicity
Format: functional, organism-based
Conditions: Enterovirus B

Structure (SMILES) | EC50
COc1cc(/C=N/NC(=O)c2ccncc2)ccc1O [FTIVAZIDE] | > 20 µg/mL
Cc1ccc(/C=N/NC(=O)c2ccncc2)cc1 [N'-(4-METHYLBENZYLIDENE)ISONICOTINOHYDRAZIDE] | 9 µg/mL (≈ 37.6 µM)

Tested on: Bacillus subtilis
Assay: Antimicrobial activity against Bacillus subtilis after 24 hr by serial dilution method
Format: functional
Conditions: not given

Structure (SMILES) | -logMIC
COc1cc(/C=N/NC(=O)c2ccncc2)ccc1O [FTIVAZIDE] | 2.04
Cc1ccc(/C=N/NC(=O)c2ccncc2)cc1 [N'-(4-METHYLBENZYLIDENE)ISONICOTINOHYDRAZIDE] | 1.98

Tested on: Human respirovirus 3
Assay: Antiviral activity against Human parainfluenza virus 3 infected Vero cells assessed as inhibition of virus-induced cytopathicity
Format: functional, organism-based
Conditions: Human respirovirus 3, Vero

Structure (SMILES) | EC50
COc1cc(/C=N/NC(=O)c2ccncc2)ccc1O [FTIVAZIDE] | > 100 µg/mL
Cc1ccc(/C=N/NC(=O)c2ccncc2)cc1 [N'-(4-METHYLBENZYLIDENE)ISONICOTINOHYDRAZIDE] | > 20 µg/mL

Tested on: Human immunodeficiency virus 1
Assay: Antiviral activity against Human immunodeficiency virus 1 IIIB infected human MT4 cells assessed as inhibition of virus-induced cytopathicity
Format: functional, organism-based
Conditions: not given

Structure (SMILES) | EC50
COc1cc(/C=N/NC(=O)c2ccncc2)ccc1O [FTIVAZIDE] | > 89 µg/mL
Cc1ccc(/C=N/NC(=O)c2ccncc2)cc1 [N'-(4-METHYLBENZYLIDENE)ISONICOTINOHYDRAZIDE] | > 25 µg/mL

Tested on: Aspergillus niger
Assay: Antimicrobial activity against Aspergillus niger after 7 days by serial dilution method
Format: functional
Conditions: not given

Structure (SMILES) | -logMIC
COc1cc(/C=N/NC(=O)c2ccncc2)ccc1O [FTIVAZIDE] | 2.34
Cc1ccc(/C=N/NC(=O)c2ccncc2)cc1 [N'-(4-METHYLBENZYLIDENE)ISONICOTINOHYDRAZIDE] | 2.28

Tested on: Human immunodeficiency virus 2
Assay: Antiviral activity against Human immunodeficiency virus type 2 (ISOLATE ROD) infected human MT4 cells assessed as inhibition of virus-induced cytopathicity
Format: functional, organism-based
Conditions: Human immunodeficiency virus 2, ISOLATE ROD

Structure (SMILES) | EC50
COc1cc(/C=N/NC(=O)c2ccncc2)ccc1O [FTIVAZIDE] | > 89 µg/mL
Cc1ccc(/C=N/NC(=O)c2ccncc2)cc1 [N'-(4-METHYLBENZYLIDENE)ISONICOTINOHYDRAZIDE] | > 25 µg/mL

Tested on: not listed separately
Assay: Cytotoxicity against Chlorocebus aethiops (African green monkey) Vero cells assessed as alteration in cell morphology
Format: cell-based
Conditions: chlorocebus sabaeus

Structure (SMILES) | MCC
COc1cc(/C=N/NC(=O)c2ccncc2)ccc1O [FTIVAZIDE] | > 100 µg/mL
Cc1ccc(/C=N/NC(=O)c2ccncc2)cc1 [N'-(4-METHYLBENZYLIDENE)ISONICOTINOHYDRAZIDE] | ≥ 20 µg/mL

Tested on: Human alphaherpesvirus 2
Assay: Antiviral activity against Human herpesvirus 2 strain G infected human HEL cells assessed as inhibition of virus-induced cytopathicity
Format: functional, organism-based
Conditions: Human alphaherpesvirus 2, strain G

Structure (SMILES) | EC50
COc1cc(/C=N/NC(=O)c2ccncc2)ccc1O [FTIVAZIDE] | > 100 µg/mL
Cc1ccc(/C=N/NC(=O)c2ccncc2)cc1 [N'-(4-METHYLBENZYLIDENE)ISONICOTINOHYDRAZIDE] | > 100 µg/mL

Tested on: Punta Toro virus
Assay: Antiviral activity against Punta Toro virus infected Vero cells assessed as inhibition of virus-induced cytopathicity
Format: functional, organism-based
Conditions: not given

Structure (SMILES) | EC50
COc1cc(/C=N/NC(=O)c2ccncc2)ccc1O [FTIVAZIDE] | > 100 µg/mL
Cc1ccc(/C=N/NC(=O)c2ccncc2)cc1 [N'-(4-METHYLBENZYLIDENE)ISONICOTINOHYDRAZIDE] | > 20 µg/mL

Tested on: Staphylococcus aureus
Assay: Antimicrobial activity against Staphylococcus aureus after 24 hr by serial dilution method
Format: functional
Conditions: not given

Structure (SMILES) | -logMIC
COc1cc(/C=N/NC(=O)c2ccncc2)ccc1O [FTIVAZIDE] | 2.04
Cc1ccc(/C=N/NC(=O)c2ccncc2)cc1 [N'-(4-METHYLBENZYLIDENE)ISONICOTINOHYDRAZIDE] | 1.98

Tested on: Vaccinia virus
Assay: Antiviral activity against Vaccinia virus infected human HEL cells assessed as inhibition of virus-induced cytopathicity
Format: functional, organism-based
Conditions: Orthopoxvirus vaccinia

Structure (SMILES) | EC50
COc1cc(/C=N/NC(=O)c2ccncc2)ccc1O [FTIVAZIDE] | > 100 µg/mL
Cc1ccc(/C=N/NC(=O)c2ccncc2)cc1 [N'-(4-METHYLBENZYLIDENE)ISONICOTINOHYDRAZIDE] | > 100 µg/mL

Tested on: Mammalian orthoreovirus 1
Assay: Antiviral activity against Mammalian orthoreovirus 1 infected Vero cells assessed as inhibition of virus-induced cytopathicity
Format: functional, organism-based
Conditions: Mammalian orthoreovirus 1, Vero

Structure (SMILES) | EC50
COc1cc(/C=N/NC(=O)c2ccncc2)ccc1O [FTIVAZIDE] | > 100 µg/mL
Cc1ccc(/C=N/NC(=O)c2ccncc2)cc1 [N'-(4-METHYLBENZYLIDENE)ISONICOTINOHYDRAZIDE] | > 20 µg/mL

Tested on: Respiratory syncytial virus
Assay: Antiviral activity against Respiratory syncytial virus infected human HeLa cells assessed as inhibition of virus-induced cytopathicity
Format: functional, organism-based
Conditions: not given

Structure (SMILES) | EC50
COc1cc(/C=N/NC(=O)c2ccncc2)ccc1O [FTIVAZIDE] | > 20 µg/mL
Cc1ccc(/C=N/NC(=O)c2ccncc2)cc1 [N'-(4-METHYLBENZYLIDENE)ISONICOTINOHYDRAZIDE] | > 20 µg/mL

Tested on: Human alphaherpesvirus 1
Assay: Antiviral activity against Human herpesvirus 1 strain KOS infected in human HEL cells assessed as inhibition of virus-induced cytopathicity
Format: functional, organism-based
Conditions: Human alphaherpesvirus 1, KOS

Structure (SMILES) | EC50
COc1cc(/C=N/NC(=O)c2ccncc2)ccc1O [FTIVAZIDE] | > 100 µg/mL
Cc1ccc(/C=N/NC(=O)c2ccncc2)cc1 [N'-(4-METHYLBENZYLIDENE)ISONICOTINOHYDRAZIDE] | > 100 µg/mL
